According to patent US10370364B1, “Substituted chromenes for treatment of fibrosis or non-alcoholic steatohepatitis” (OSTEONEUROGEN INC., priority 2018, dated 2019):
Where two headings read alike, the source gives them in different places.

Experiments:
[1] = tested on: Diseased human lung fibroblasts (DHLF); test: TGF-β-induced fibrosis of diseased human lung fibroblasts (DHLF); assay type: cell-based; details: TGF-β 5 ng/ml, compound 50 μM, 24, 48 or 72 hours
Experimental: Diseased human lung fibroblasts (DHLF) (Lonza, Swiss) isolated from lung fibrosis patients were seeded into medium, cultured for 24 hours, and then treated with TGF-β (5 ng/ml) to induce fibrosis. Alternatively, the fibroblasts were co-treated with TGF-β and the compound of the present invention (50 μM in DMSO) and cultured for 24, 48 or 72 hours. Next, the degree of differentiation into myofibroblasts was examined with a phase contrast microscope (200×).

CYP3A4 [2] = target: T1, CYP3A4 (Homo sapiens, UniProt P08684)
CYP3A4 [3] = target: T1, CYP3A4; test: CYP450 inhibition, CYP3A4
A549 cell line = test: TGF-β-induced myofibroblast differentiation of A549 cell line; assay type: cell-based, human; details: A549, TGF-β 5 ng/ml, compound 25 or 50 μM, 24 or 48 hours
Experimental: The A549 cell line, which is a lung adenocarcinoma cell line used as a lung EMT-related study model, was seeded into medium, cultured for 24 hours, and then treated with TGF-β (5 ng/ml). Alternatively, the A549 cell line was co-treated with TGF-β and the compound of the present invention (25 or 50 μM in DMSO) and cultured for 24 or 48 hours. Next, the cells were examined with a phase contrast microscope (200×).

STAM mice = test: Non-alcoholic steatohepatitis animal model (STAM mice), NAFLD activity score; assay type: in vivo; details: 50 mpk oral, Formulation Example 2, once a day five times a week
Experimental: STAM mice (SMC Laboratories, Inc., Japan), which are non-alcoholic steatohepatitis animal models, were used as experimental animals. These animal models were administered with streptozotocin immediately after birth, and fed with high-fat-diet after 3 weeks. Then, in the mouse model, non-alcoholic steatohepatitis occurred at 6 to 9 weeks, and liver fibrosis, cirrhosis and liver cancer occurred within 9 to 12 weeks.
Over 6 to 9 weeks after administration of streptozotocin, the compound of the present invention, dissolved in a mixture solution of Tween80 and 0.5% CMC aqueous solution (1:99 (v/v)) (Formulation Example 2), was orally administered to the animal models once a day (five times a week). As controls, telmisartan and OCA (obeticholic acid) were administered in the same manner.
At […] after administration of streptozotocin (a time point after 3-week administration of the compound), the mice were sacrificed, the liver of each mouse was dissected, the invasion of inflammatory cells was observed by […] of the liver tissue, and fibrosis of the liver tissue was observed by Sirius Red staining (see FIG. 42). In addition, the degrees of inflammation, fibrosis, liver cell ballooning and adipose accumulation observed were measured, data integration was performed, and the NAFLD (nonalcoholic fatty liver disease) activity score was statistically processed by t-test.

CYP2D6 [4] = target: T2, CYP2D6 (Homo sapiens, UniProt P10635); test: CYP450 inhibition, CYP2D6
[5] = tested on: α-SMA (alpha-smooth muscle actin); test: α-SMA expression in ONGHEPA1 cells by immunofluorescent staining; assay type: cell-based, rat; details: TGF-β plus compound 50 μM
From the text: In addition, in order to examine whether the above-described effect would be attributable to the effect against epithelial-mesenchymal transition (EMT) (hereinafter referred to as “EMT”), the expression of α-SMA (alpha-smooth muscle actin), which is a representative marker of EMT, in the cells of each test group, was examined by immunofluorescent staining and nuclear staining (DAPI staining).

CYP2D6 [6] = target: T2, CYP2D6
CYP2C9 = CYP2C9 (Homo sapiens, UniProt P11712); test: CYP450 inhibition, CYP2C9
Snail = Snail expression in A549 cells by real-time PCR; assay type: cell-based, human; details: A549, TGF-β plus compound
Experimental: (§1) In addition, in order to examine whether the effect as described above would be attributable to the effect against EMT, the expression patterns of Snail and Vimentin, which are representative markers of EMT, in the cells of each test group, were analyzed by real-time PCR.

Vimentin = Vimentin expression in A549 cells by real-time PCR; assay type: cell-based, human; details: A549, TGF-β plus compound
Experimental: as §1

[7] = Pharmacokinetics in male SD rats (oral and i.v., various formulations); assay type: in vivo, rat
Experimental: To examine the pharmacokinetics of the compound after oral administration, rat models were used.
Male SD rats (weighed 250 to 300 g) were divided into several groups, each consisting of 3 rats, […], after which the amount of the compound present in the plasma was measured with the passage of time. […]
For effective formulation of the compound of the present invention, the pharmacokinetics of various formulations after oral administration were examined according to the same method as described in Experimental Example 2-4 above.

[8] = male, SD, plasma, iv, 1 mg/kg, rat, 1 mpk i.v, Formulation Example 1
[9] = male, SD, rat, plasma, po, 10 mg/kg, 10 mpk po, Formulation Example 3, NMP/PEG400/Solutol HS/water vehicle
[10] = male, SD, rat, plasma, po, 10 mg/kg, 10 mpk po, Formulation Example 4, NMP/ethanol/PEG200/saline vehicle
[11] = male, SD, rat, plasma, po, 10 mg/kg, 10 mpk po, Formulation Example 5, in 30% HPCD aqueous solution
[12] = male, SD, rat, plasma, po, 200 mg/kg, 200 mpk po, Formulation Example 2

T1 sequence (P08684 whole entry): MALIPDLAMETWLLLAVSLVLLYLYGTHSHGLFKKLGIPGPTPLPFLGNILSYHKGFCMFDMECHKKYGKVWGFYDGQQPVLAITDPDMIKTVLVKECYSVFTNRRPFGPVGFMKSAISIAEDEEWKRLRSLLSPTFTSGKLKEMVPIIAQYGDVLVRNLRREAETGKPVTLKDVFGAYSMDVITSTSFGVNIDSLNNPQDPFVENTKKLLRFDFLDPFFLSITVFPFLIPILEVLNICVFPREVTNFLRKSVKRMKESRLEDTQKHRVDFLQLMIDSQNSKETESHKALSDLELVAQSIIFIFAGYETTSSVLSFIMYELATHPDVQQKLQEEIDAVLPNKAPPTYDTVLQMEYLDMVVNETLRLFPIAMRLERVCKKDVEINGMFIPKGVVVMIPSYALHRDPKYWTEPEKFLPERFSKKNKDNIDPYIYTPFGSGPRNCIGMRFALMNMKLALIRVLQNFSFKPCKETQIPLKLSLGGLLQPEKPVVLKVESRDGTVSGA
T2 sequence (P10635 whole entry): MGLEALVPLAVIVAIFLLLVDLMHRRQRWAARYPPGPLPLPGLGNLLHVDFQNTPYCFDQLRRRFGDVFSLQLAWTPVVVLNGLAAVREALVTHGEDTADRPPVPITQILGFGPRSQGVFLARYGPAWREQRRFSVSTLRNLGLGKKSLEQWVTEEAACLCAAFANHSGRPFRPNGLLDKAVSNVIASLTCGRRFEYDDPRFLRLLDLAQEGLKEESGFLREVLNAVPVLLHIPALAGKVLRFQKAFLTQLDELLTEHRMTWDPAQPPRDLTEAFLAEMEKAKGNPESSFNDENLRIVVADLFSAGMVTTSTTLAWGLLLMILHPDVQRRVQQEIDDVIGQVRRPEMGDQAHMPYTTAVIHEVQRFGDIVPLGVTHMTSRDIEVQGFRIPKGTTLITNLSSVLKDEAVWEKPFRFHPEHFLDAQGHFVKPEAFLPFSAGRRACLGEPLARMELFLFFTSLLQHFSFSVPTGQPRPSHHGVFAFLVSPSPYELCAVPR
Sequence of CYP2C9 (P11712 whole entry): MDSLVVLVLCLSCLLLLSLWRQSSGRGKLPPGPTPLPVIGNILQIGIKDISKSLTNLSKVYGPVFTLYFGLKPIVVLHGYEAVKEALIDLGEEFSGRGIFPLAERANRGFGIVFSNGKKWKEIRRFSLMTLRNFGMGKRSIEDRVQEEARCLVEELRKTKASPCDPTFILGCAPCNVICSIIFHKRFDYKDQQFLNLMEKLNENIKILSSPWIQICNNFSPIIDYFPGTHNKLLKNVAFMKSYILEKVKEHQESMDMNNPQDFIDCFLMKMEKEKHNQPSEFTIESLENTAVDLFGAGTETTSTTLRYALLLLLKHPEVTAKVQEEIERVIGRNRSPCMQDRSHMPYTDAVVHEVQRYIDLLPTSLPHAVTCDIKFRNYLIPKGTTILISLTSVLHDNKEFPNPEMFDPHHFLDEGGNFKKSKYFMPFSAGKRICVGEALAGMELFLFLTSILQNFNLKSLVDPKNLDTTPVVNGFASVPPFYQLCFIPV

## COc1ccc(-c2cc(=O)c3c(O)c(OC)c(OCCN4CCNC(=O)C4)cc3o2)cc1OC [Compound 1, 4-(2-((2-(3,4-dimethoxyphenyl)-5-hydroxy-6-methoxy-4-oxo-4H-chromen-7-yl)oxy)ethyl)piperazin-2-one]
[1]
  degree of differentiation into myofibroblasts (fibrosis symptom): showed little or no fibrosis symptom
  growth of the cells: inhibited
CYP3A4 [2]
  inhibitory activity against CYP3A4 (in words): little or very low inhibitory activity
CYP3A4 [3]; 3A4-midazolam IC50, substrate midazolam
  IC50: > 50 µM
CYP3A4 [3]; 3A4-testosterone IC50, substrate testosterone
  IC50: 49.7 µM
A549 cell line
  myofibroblast differentiation: inhibited
STAM mice
  NAFLD activity score (t-test): statistically significant anti-NASH effects
CYP2D6 [4]
  IC50: > 50 µM
[5]
  expression of α-SMA: inhibited
CYP2D6 [6]
  inhibitory activity against CYP2D6 (in words): little or very low inhibitory activity
CYP2C9
  IC50: 5.54 µM
Snail
  expression of Snail: significantly inhibited
Vimentin
  expression of Vimentin: significantly inhibited
[7]; Formulation Example 2 compared to Formulation Example 3, FIG. 25
  plasma profile after oral administration (in words): absorbed rapidly in vivo after oral administration and was maintained in the plasma for a long period of time
[7]; male, SD, plasma, 10 mg/kg, rat, 10 mpk po, Formulation Example 5
  MRT inf: 3.2 ± 0.7 h
[7]; male, SD, plasma, 10 mg/kg, rat, 10 mpk po, Formulation Example 5, read-out: t1/2 (converted)
  half-life: 1.9 ± 0.6 h
[7]; male, SD, plasma, 200 mg/kg, rat, 200 mpk po, Formulation Example 2
  MRT inf: 1.7 ± 0.2 h
[7]; male, SD, plasma, 200 mg/kg, rat, 200 mpk po, Formulation Example 2, read-out: t½ (converted)
  half-life: 1.5 ± 0.4 h
[7]; [8]
  MRT inf: 0.4 h
  Vd: 3.6 ± 0.25 L/kg
[7]; male, SD, plasma, iv, 1 mg/kg, rat, 1 mpk i.v, Formulation Example 1 (100% DMSO)
  C0: 506 ± 130 ng/mL
[7]; male, SD, plasma, iv, 1 mg/kg, rat, 1 mpk i.v, Formulation Example 1, read-out: CLP (converted)
  clearance: 112 mL/min/kg
[7]; male, SD, plasma, iv, 1 mg/kg, rat, 1 mpk i.v, Formulation Example 1, read-out: t1/2 (converted)
  half-life: 0.38 ± 0.03 h
[7]; male, SD, rat, plasma, iv, 1 mg/kg, 1 mpk i.v, Formulation Example 1
  AUC(0-inf): 149 ± 3 ng·h/mL
[7]; male, SD, rat, plasma, iv, 1 mg/kg, rat, 1 mpk i.v, Formulation Example 1, read-out: AUC(0-t)
  AUC(0-t): 147 ± 2.2 ng·h/mL
[7]; male, SD, rat, plasma, po, 10 mg/kg, 10 mpk po, Formulation Example 2
  bioavailability: 1.4%
[7]; male, SD, rat, plasma, po, 10 mg/kg, 10 mpk po, Formulation Example 3
  bioavailability: ~9%
[7]; [9]
  AUC(0-inf): 155 ± 7.5 ng·h/mL
  Tmax: 0.25 ± 0.1 h
[7]; male, SD, rat, plasma, po, 10 mg/kg, 10 mpk po, Formulation Example 4
  bioavailability: ~3%
[7]; [10]
  AUC(0-inf): 46.4 ± 14.1 ng·h/mL
  Tmax: 0.25 h
[7]; male, SD, rat, plasma, po, 10 mg/kg, 10 mpk po, Formulation Example 5
  bioavailability: ~7%
[7]; male, SD, rat, plasma, po, 10 mg/kg, 10 mpk po, Formulation Example 5 (30% (w/v) HPCD aqueous solution)
  Cmax: 393 ± 299 ng/mL
[7]; [11]
  AUC(0-inf): 1080 ± 327 ng·h/mL
  Tmax: 1.3 ± 0.6 h
[7]; male, SD, rat, plasma, po, 10 mg/kg, rat, 10 mpk po, Formulation Example 2 (Tween80: 0.5% CMC 1:99)
  Cmax: 22.3 ± 8.9 ng/mL
[7]; male, SD, rat, plasma, po, 10 mg/kg, rat, 10 mpk po, Formulation Example 2, in Tween80:0.5% CMC aqueous vehicle
  Tmax: 0.4 ± 0.1 h
[7]; male, SD, rat, plasma, po, 10 mg/kg, rat, 10 mpk po, Formulation Example 2, in Tween80:0.5% CMC aqueous vehicle, read-out: AUC(0-t)
  AUC(0-t): 20.4 ± 6.2 ng·h/mL
[7]; male, SD, rat, plasma, po, 10 mg/kg, rat, 10 mpk po, Formulation Example 3 (NMP: PEG400: SOLUTOL HS: water 10:20:20:50)
  Cmax: 62.2 ± 37.5 ng/mL
[7]; male, SD, rat, plasma, po, 10 mg/kg, rat, 10 mpk po, Formulation Example 3, NMP/PEG400/Solutol HS/water vehicle, read-out: AUC(0-t)
  AUC(0-t): 126 ± 19.1 ng·h/mL
[7]; male, SD, rat, plasma, po, 10 mg/kg, rat, 10 mpk po, Formulation Example 4 (NMP: ethanol: PEG200: normal saline 5:10:30:55)
  Cmax: 46.7 ± 8.8 ng/mL
[7]; male, SD, rat, plasma, po, 10 mg/kg, rat, 10 mpk po, Formulation Example 4, NMP/ethanol/PEG200/saline vehicle, read-out: AUC(0-t)
  AUC(0-t): 42.5 ± 16 ng·h/mL
[7]; male, SD, rat, plasma, po, 10 mg/kg, rat, 10 mpk po, Formulation Example 5, in 30% HPCD aqueous solution, read-out: AUC(0-t)
  AUC(0-t): 1000 ± 314 ng·h/mL
[7]; [12]
  AUC(0-inf): 426 ± 67.7 ng·h/mL
  Tmax: 1 h
  bioavailability: 1.4%
[7]; male, SD, rat, plasma, po, 200 mg/kg, rat, 200 mpk po, Formulation Example 2 (Tween80: 0.5% CMC 1:99)
  Cmax: 261 ± 41.4 ng/mL
[7]; male, SD, rat, plasma, po, 200 mg/kg, rat, 200 mpk po, Formulation Example 2, read-out: AUC (0-24)
  AUC(0-t): 420 ± 69.3 ng·h/mL
[7]; male, SD, rat, plasma, po, 200 mg/kg, rat, 200 mpk po, Formulation Example 2, read-out: AUC(0-t)
  AUC(0-t): 420 ± 69.3 ng·h/mL
[7]; male, SD, rat, plasma, po, Formulation Example 2, dose not given
  bioavailability: 1.4%
[7]; rat, 1 mpk i.v, Formulation Example 1
  AUC_% Extrap (obs): 1.8 ± 0.5%
[7]; rat, 10 mpk po, Formulation Example 5
  AUC_% Extrap (obs): 7.0 ± 5.2%
[7]; rat, 200 mpk po, 0.5% CMC and about 1% Tween-80
  absorption after oral administration (in words): absorbed rapidly in vivo after oral administration
[7]; rat, 200 mpk po, Formulation Example 2
  AUC_% Extrap (obs): 1.6 ± 0.7%
